These are literature values, as cited in patent US9750700B2 (Natco Pharma Limited, priority 2011, dated 2017).

For this data set the following is noted: crystalline form of Imatinib mesylate.

Molecules are shown by their SMILES.

On to `CS(=O)(=O)O.Cc1ccc(NC(=O)c2ccc(CN3CCN(C)CC3)cc2)cc1Nc1nccc(-c2cccnc2)n1` [α-crystalline form], for which the hygroscopicity entry was “hygroscopic”.
